This note sets out measurements from the supplement of paper PMC11923942.

A short description of data set [1]: GC retention time (DB-5MS, GC-APCI); higher = later elution. As to the method: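 Standards of hydrophobic organic contaminants were analysed by GC-APCI (positive mode, dry or wet source conditions) coupled to cyclic ion mobility-QTOF MS. CCS was measured for the base ion (sometimes a fragment ion) in N2 drift gas (one-pass mode, calibrated with a Waters 22-compound mix). 5 mL/min).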

Data set [2] can be described thus: collision cross section (N2, base ion); higher = larger ion cross section. As to the method:
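Standards of hydrophobic organic contaminants were analysed by GC-APCI (positive mode, dry or wet source conditions) coupled to cyclic ion mobility-QTOF MS. CCS was measured for the base ion (sometimes a fragment ion) in N2 drift gas (one-pass mode, calibrated with a Waters 22-compound mix).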

Molecules are shown by their SMILES.

As for `Clc1ccc(Cl)c(Cl)c1Cl` [1,2,3,4-Tetrachlorobenzene] (APCI source condition: Dry, base ion: M+.), the GC retention time in data set [1] is 9.99 min. This molecule showed a collision cross section in data set [2] of 135.67 Å².

In the case of `Brc1cc(Br)c(OCCOc2c(Br)cc(Br)cc2Br)c(Br)c1` [1,2-Bis(2,4,6-tribromophenoxy)ethane] (APCI source condition: Dry, base ion: M+.), the GC retention time in data set [1] was 29 min. Further, the collision cross section in data set [2] worked out at 186.57 Å².

`C=CCOc1c(Br)cc(Br)cc1Br` [1,3,5-Tribromo-2-prop-2-enoxybenzene] (APCI source condition: Dry, base ion: [M-Br]+): the GC retention time in data set [1] is 15.2 min. The molecule further yielded a collision cross section in data set [2] of 136.27 Å².

In turn, `CCCCCCCCCCCCCCCCC(F)(F)C(F)(F)C(F)(F)C(F)(F)C(F)(F)C(F)(F)C(F)(F)C(F)(F)C(F)(F)C(F)(F)F` [1-(Henicosafluorodecyl)hexadecane] (APCI source condition: Dry, base ion: [M-H]+) showed a GC retention time in data set [1] of 17.6 min. Also, the collision cross section in data set [2] is reported as 241.65 Å².

On to `CCCCCCCCCCCCCCCCC(F)(F)C(F)(F)C(F)(F)C(F)(F)C(F)(F)C(F)(F)C(F)(F)C(F)(F)F` [1-(Perfluoro-n-octyl)hexadecane] (APCI source condition: Dry, base ion: [M-H]+), for which the GC retention time in data set [1] worked out at 16.8 min. Besides, the collision cross section in data set [2] is given as 226.94 Å².

Molecule `CCCCCCCCCCCCCCC=CC(F)(F)C(F)(F)C(F)(F)C(F)(F)C(F)(F)C(F)(F)C(F)(F)C(F)(F)C(F)(F)C(F)(F)C(F)(F)C(F)(F)F` [1-(Perfluorododecyl)-hexadec-1-ene] (APCI source condition: Dry, base ion: [M-H]+) registered a GC retention time in data set [1] of 18 min. The molecule further displayed a collision cross section in data set [2] of 255.25 Å².

In data set [1], `CCCCCCCCCCCCCCCCC(F)(F)C(F)(F)C(F)(F)C(F)(F)C(F)(F)C(F)(F)C(F)(F)C(F)(F)C(F)(F)C(F)(F)C(F)(F)C(F)(F)F` [1-(Perfluorododecyl)hexadecane] (APCI source condition: Dry, base ion: [M-H]+) displayed a GC retention time of 18.4 min. The molecule further gave a collision cross section in data set [2] of 256.66 Å².

In data set [1], `CCCCCCCCCCCCCCC(F)(F)C(F)(F)C(F)(F)C(F)(F)C(F)(F)C(F)(F)C(F)(F)C(F)(F)C(F)(F)C(F)(F)C(F)(F)C(F)(F)F` [1-(Perfluorododecyl)tetradecane] (APCI source condition: Dry, base ion: [M-H]+) came in with a GC retention time of 16.7 min. Besides, in data set [2], the collision cross section is on record as 250.16 Å².

`Clc1ccc(C(c2ccccc2Cl)C(Cl)Cl)cc1` (stereo unspecified) [2,4'-DDD] (APCI source condition: Dry, base ion: [M-CHCl2]+) registered a GC retention time in data set [1] of 19.4 min. Further, in data set [2], the collision cross section came out at 140.45 Å².

`ClC(Cl)=C(c1ccc(Cl)cc1)c1ccccc1Cl` [2,4'-DDE] (APCI source condition: Dry, base ion: M+.) registered a GC retention time in data set [1] of 18.7 min. Moreover, the collision cross section in data set [2] was 154.54 Å².

For `Clc1ccc(C(c2ccccc2Cl)C(Cl)(Cl)Cl)cc1` (stereo unspecified) [2,4'-DDT] (APCI source condition: Dry, base ion: [M-CCl3]+), in data set [1], the GC retention time is 20.2 min. Further, the collision cross section in data set [2] is 140.36 Å².

In data set [1], `C=C(Br)COc1c(Br)cc(Br)cc1Br` [2-Bromoallyl 2,4,6-tribromophenyl ether] (APCI source condition: Dry, base ion: [M-Br]+) returned a GC retention time of 18.2 min. The molecule further yielded a collision cross section in data set [2] of 143.35 Å².

In data set [1], `CCCCC(CC)COP(=O)(Oc1ccccc1)Oc1ccccc1` (stereo unspecified) [2-Ethylhexyl diphenyl phosphate] (APCI source condition: Wet, base ion: [M-C8H15]+) returned a GC retention time of 21.3 min. Besides, in data set [2], the collision cross section amounted to 149.25 Å².

For the molecule `CCCCC(CC)COC(=O)c1cc(Br)c(Br)c(Br)c1Br` (stereo unspecified) [2-Ethylhexyl-2,3,4,5-tetrabromobenzoate] (APCI source condition: Dry, base ion: C7H3Br4O2+), the GC retention time in data set [1] was found to be 24.2 min. In addition, the collision cross section in data set [2] was determined as 141.48 Å².

In the case of `Clc1ccc(C(c2ccc(Cl)cc2)C(Cl)Cl)cc1` [4,4'-DDD] (APCI source condition: Dry, base ion: [M-CHCl2]+), in data set [1], the GC retention time came out at 20.1 min. The collision cross section in data set [2] was determined as 142.2 Å².

Take `ClC(Cl)=C(c1ccc(Cl)cc1)c1ccc(Cl)cc1` [4,4'-DDE] (APCI source condition: Dry, base ion: M+.): the GC retention time in data set [1] is 19.3 min. The molecule further showed a collision cross section in data set [2] of 159.06 Å².

Molecule `Clc1ccc(C(c2ccc(Cl)cc2)C(Cl)(Cl)Cl)cc1` [4,4'-DDT] (APCI source condition: Dry, base ion: [M-CCl3]+) registered a GC retention time in data set [1] of 20.8 min. This molecule displayed a collision cross section in data set [2] of 140.31 Å².

For `c1ccc2cc3ccccc3cc2c1` [Anthracene] (APCI source condition: Dry, base ion: M+.), the GC retention time in data set [1] worked out at 15.7 min. In data set [2], this molecule registered a collision cross section of 138 Å².

On to `c1ccc2cc3c(ccc4ccccc43)cc2c1` [Benzo(a)anthracene] (APCI source condition: Dry, base ion: M+.), for which the GC retention time in data set [1] came to 21.8 min. The collision cross section in data set [2] was 140.47 Å².

Regarding `c1ccc2c(c1)cc1ccc3cccc4ccc2c1c34` [Benzo(a)pyrene] (APCI source condition: Dry, base ion: M+.), the GC retention time in data set [1] came out at 24.8 min. In data set [2], the collision cross section is given as 143.28 Å².

Consider `c1ccc2c(c1)-c1cccc3c1c-2cc1ccccc13` [Benzo(b)fluoranthene] (APCI source condition: Dry, base ion: M+.), for which the GC retention time in data set [1] is 24.2 min. The collision cross section in data set [2] is on record as 145.46 Å².

As to `c1ccc2c(c1)ccc1ccc3ccccc3c12` [Benzo(c)phenanthrene] (APCI source condition: Dry, base ion: M+.), in data set [1], the GC retention time is 21.3 min. The molecule further gave a collision cross section in data set [2] of 140.99 Å².

With `c1ccc2c(c1)c1cccc3ccc4cccc2c4c31` [Benzo(e)pyrene] (APCI source condition: Dry, base ion: M+.), in data set [1], the GC retention time turned out to be 24.7 min. The same molecule had a collision cross section in data set [2] of 142.88 Å².

In data set [1], `c1cc2ccc3ccc4ccc5cccc6c(c1)c2c3c4c56` [Benzo(g,h,i)perylene] (APCI source condition: Dry, base ion: M+.) gave a GC retention time of 27.1 min. Moreover, in data set [2], the collision cross section was determined as 150.71 Å².

`c1ccc2cc3c(cc2c1)-c1cccc2cccc-3c12` [Benzo(k)fluoranthene] (APCI source condition: Dry, base ion: M+.) yielded a GC retention time in data set [1] of 24.2 min. The collision cross section in data set [2] came out at 145.45 Å².

For `CCCCC(CC)COC(=O)c1c(Br)c(Br)c(Br)c(Br)c1C(=O)OCC(CC)CCCC` (stereo unspecified) [Bis(2-ethylhexyl) tetrabromophthalate] (APCI source condition: Dry, base ion: C8HBr4O3+), the GC retention time in data set [1] was determined as 30.1 min. Besides, the collision cross section in data set [2] is 141.58 Å².

In turn, `c1ccc2c(c1)ccc1c3ccccc3ccc21` [Chrysene] (APCI source condition: Dry, base ion: M+.) yielded a GC retention time in data set [1] of 21.9 min. Moreover, in data set [2], the collision cross section came to 141.28 Å².

`c1ccc2c(c1)ccc1cc3c(ccc4ccccc43)cc12` [Dibenzo(a,h)anthracene] (APCI source condition: Dry, base ion: M+.) gave a GC retention time in data set [1] of 27.2 min. The collision cross section in data set [2] is reported as 154.91 Å².

As for `c1ccc2c(c1)sc1ccccc12` [Dibenzothiophene] (APCI source condition: Dry, base ion: M+.), the GC retention time in data set [1] is 15.2 min. Also, the collision cross section in data set [2] is 137.55 Å².

`ClC1=C(Cl)[C@]2(Cl)[C@@H]3[C@@H]4C[C@@H]([C@H]5O[C@@H]45)[C@@H]3[C@@]1(Cl)C2(Cl)Cl` [Dieldrin] (APCI source condition: Dry, base ion: M+.) had a GC retention time in data set [1] of 19.8 min. This molecule registered a collision cross section in data set [2] of 151.16 Å².

Regarding `ClC1=C(Cl)C2(Cl)C3C4CC(C5OC45)C3C1(Cl)C2(Cl)Cl` (stereo unspecified) [Endrin] (APCI source condition: Wet, base ion: [M+H]+), the GC retention time in data set [1] was 19.4 min. For the same molecule, the collision cross section in data set [2] is on record as 157.95 Å².

`c1ccc2c(c1)-c1cccc3cccc-2c13` [Fluoranthene] (APCI source condition: Dry, base ion: M+.) had a GC retention time in data set [1] of 18.4 min. The collision cross section in data set [2] is on record as 138.02 Å².

The molecule `ClC1=C(Cl)C2(Cl)[C@H]3[C@@H]4O[C@@H]4[C@H](Cl)[C@H]3C1(Cl)C2(Cl)Cl` (stereo partly drawn) [Heptachlor-exo-epoxide] (APCI source condition: Dry, base ion: [M-H]+) registered a GC retention time in data set [1] of 18.2 min. The same molecule returned a collision cross section in data set [2] of 151.86 Å².

For the molecule `ClC1=C(Cl)C2(Cl)C3C(Cl)C=CC3C1(Cl)C2(Cl)Cl` (stereo unspecified) [Heptachlor] (APCI source condition: Dry, base ion: [M-H]+), in data set [1], the GC retention time was 16.7 min. The collision cross section in data set [2] was found to be 157.41 Å².

For the molecule `Brc1c(Br)c(Br)c(Br)c(Br)c1Br` [Hexabromobenzene] (APCI source condition: Dry, base ion: M+.), the GC retention time in data set [1] was 21.8 min. In data set [2], the collision cross section was 135.29 Å².

As to `Clc1c(Cl)c(Cl)c(-c2c(Cl)c(Cl)c(Cl)c(Cl)c2Cl)c(Cl)c1Cl` [PCB 209] (APCI source condition: Dry, base ion: M+.), in data set [2], the collision cross section came to 179.93 Å².
